Reference: paper PMC4577729, “7-(Pyrazol-4-yl)-3H-imidazo[4,5-b]pyridine-based derivatives for kinase inhibition: Co-crystallisation studies with Aurora-A reveal distinct differences in the orientation of the pyrazole N1-substituent” (Bioorganic & Medicinal Chemistry Letters, 2015)
“And” between values parts separate entries of the source, which are not always exact repeats. Identical values can stand only once.

Experiments:
[1] = Human liver microsomal stability; type: in vitro ADME; details: percentage of compound metabolised after a 30 min incubation, human liver microsomes
Description: (§1) [18] MLM and HLM microsomal stabilities were determined as described in Ref. [12].

[2] = Mouse liver microsomal stability; type: in vitro ADME; details: percentage of compound metabolised after a 30 min incubation, mouse liver microsomes
Description: as §1

[3] = biological target: T1, Aurora A (Homo sapiens, UniProt O14965); assay: Aurora-A microfluidic kinase assay; type: biochemical; details: for IC50: biochemical, mean of two determinations or mean ±SD for n > 2; for fold more potent on Aurora-A relative to Aurora-B: ratio of biochemical IC50s
T1 sequence (O14965 1-403): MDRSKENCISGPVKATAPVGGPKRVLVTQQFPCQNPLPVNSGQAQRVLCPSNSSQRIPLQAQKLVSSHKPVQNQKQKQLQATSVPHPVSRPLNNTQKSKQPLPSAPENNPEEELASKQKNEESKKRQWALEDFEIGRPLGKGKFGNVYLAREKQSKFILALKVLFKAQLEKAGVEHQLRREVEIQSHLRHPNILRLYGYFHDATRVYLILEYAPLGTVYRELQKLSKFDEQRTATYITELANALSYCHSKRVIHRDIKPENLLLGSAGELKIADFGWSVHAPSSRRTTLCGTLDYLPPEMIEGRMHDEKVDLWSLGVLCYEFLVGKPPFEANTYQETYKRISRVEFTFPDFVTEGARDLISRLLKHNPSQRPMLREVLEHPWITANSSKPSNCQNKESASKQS
Description: (§2) As part of our medicinal chemistry programme to discover selective inhibitors of Aurora-A,[12] we introduced the 1-benzyl-1H-pyrazol-4-yl moiety at C7 of the imidazo[4,5-b]pyridine scaffold to provide 7a (Table 1). We previously reported 1,3-dimethyl-1H-pyrazol-4-yl as a preferred substituent at the C2 position of the imidazo[4,5-b]pyridine scaffold[11] and this moiety was therefore incorporated into the design of 7a and analogues presented in this study. […] This in vitro profile prompted us to investigate this C7-pyrazole substituted imidazo[4,5-b]pyridine subseries in more detail. Firstly, we attempted to increase biochemical potency against Aurora-A, and also to improve microsomal stability.
(§3) [17] Aurora-A and Aurora-B IC50 values were determined by using a microfluidic assay which monitors the separation of a phosphorylated product from its substrate, as described in Ref. [12].

[4] = biological target: Aurora B (Homo sapiens, UniProt Q96GD4); assay: Aurora-B microfluidic kinase assay; details: biochemical; mean of two determinations or mean ±SD for n > 2
Description: as §2, §3

[5] = Protein binding in microsomal incubations (HLM); type: in vitro ADME, human
Description: (§4) For a better understanding of the microsomal stability data, the protein binding for 7a, 7d and 7e in microsomal incubations was measured. The percentage of 7a unbound in MLM and HLM was determined as 6.71 and 4.89, respectively. Compounds 7d and 7e were more highly bound: for 7d the percentage unbound was 0.50 in both MLM and HLM and for 7e was 0.16 and 0.10, respectively. […] The potent cell-based activity prompted us to investigate kinome selectivity profiles for this class of compound by screening 7a and 7d in a 102-kinase panel at a concentration of 1 μM.[20] […] The Gini coefficient for compound 3 was reported as 0.719,[12] and the corresponding value for compound 1 is 0.560. To understand the potential for further improvement, we obtained the crystal structure of 7a bound to Aurora-A[22] (Fig. 3, Table S3, Supplementary data). […] Similar to crystal structures of previous compounds 1, 15 and 16 (Figs. 1 and 2; compounds 51 and 40c in Ref. [10], and compound 21a in Ref. [11], respectively) the N-benzyl substituent on the C7-pyrazole is oriented towards the P-loop, making Van der Waals contacts with Val147 and Gly142 (Fig. 3).

[6] = Protein binding in microsomal incubations (MLM); type: in vitro ADME, mouse
Description: as §4

Sequence of Aurora B (Q96GD4 whole entry): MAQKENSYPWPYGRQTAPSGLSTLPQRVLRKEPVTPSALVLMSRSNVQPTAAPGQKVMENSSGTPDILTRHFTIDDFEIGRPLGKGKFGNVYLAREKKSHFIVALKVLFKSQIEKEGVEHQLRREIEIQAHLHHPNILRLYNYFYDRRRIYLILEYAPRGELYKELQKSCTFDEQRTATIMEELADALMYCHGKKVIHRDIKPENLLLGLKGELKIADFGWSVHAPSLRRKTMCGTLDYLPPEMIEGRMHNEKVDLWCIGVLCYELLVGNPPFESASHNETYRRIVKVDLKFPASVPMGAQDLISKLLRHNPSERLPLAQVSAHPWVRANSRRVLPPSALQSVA

HLM % met/30 min [1]	MLM % met/30 min [2]	IC50 [3] [nM]	fold more potent on Aurora-A relative to Aurora-B [3] [fold]	IC50 [4] [nM]	percentage unbound in HLM [5] [%]	percentage unbound in MLM [6] [%]	Compound
72% and 72/72%	72/72%	36	8	296			Cc1nn(C)cc1-c1nc2c(-c3cnn(Cc4cccc(C(=O)N(C)C)c4)c3)c(Cl)cnc2[nH]1 [Compound 14a]
82%	98%	126		354			Cc1nn(C)cc1-c1nc2c(-c3cnn(Cc4ccccc4C(=O)N4CCN(C)CC4)c3)c(Cl)cnc2[nH]1 [Compound 14c]
87%	97%	46	5	235			Cc1nn(C)cc1-c1nc2c(-c3cnn(Cc4cccc(C(=O)N5CCN(C)CC5)c4)c3)c(Cl)cnc2[nH]1 [Compound 14b]
20%	31%	> 10000		> 10000	0.10	0.16	Cc1nn(C)cc1-c1nc2c(-c3cnn(-c4ccc(F)cc4)c3)c(Cl)cnc2[nH]1 [Compound 7e]
